Entries after “also recorded” stand apart in the source; their conditions may differ.
Tests used:
[1] = molecular target: T1, tubulin from porcine brain (Sus scrofa, UniProt P02550+P02554); test: Cell-free tubulin polymerization assay; format: biochemical; details: 0.12, 0.37, 1.11, 3.33 and 10 μM (FIGS. 11e, 11f)
T1 construct: which uses >99% pure tubulin from porcine brain; purchased Cytoskeleton #BK011P; host or cells: porcine brain (tissue-purified)
Description: Assays were carried out according to manufacturer's recommendations using the fluorescence-based tubulin polymerization assay kit from Cytoskeleton (#BK011P) which uses >99% pure tubulin from porcine brain. All drugs used were dissolved in DMSO and then diluted in ultrapure water to 10× final concentration. Final percentage of DMSO was kept constant for all samples. Tubulin was prepared by resuspension at 2 mg/mL in 80 mM PIPES pH 6.9, 2.0 mM MgCl2, 0.5 mM EGTA, 1.0 mM GTP, 15% glycerol, and 10 μM fluorescent reporter. All drug samples (10×) were added to a pre-warmed half-area 96-well plate (Corning Costar, 3686) in duplicate, and then warmed to 37° C. for 1 min. Tubulin (50 μL/well) was then added to all wells, and the plate was placed in a plate reader pre-warmed to 37° C. The plate was mixed by medium, orbital shaking for 5 seconds, and fluorescence measured every 60 seconds for 90 minutes (Ex: 340-360+/−20 nm, Em: 410-460 nm+/−20 nm) in a BioTek Synergy 2 plate reader. Polymerization rates (fluorescence units/minute) were determined by measuring the maximal slope (by linear regression) of the linear portion of the growth phase of the polymerization curve. (FIG. 11e and FIG. 11f)

[2] = Plasma pharmacokinetic time course in mice after a single oral dose; format: in vivo; details: single oral dose 10 mg/kg (FIG. 4a)
Description: Blood plasma and tissue samples to be used for analysis were immediately frozen on dry ice and stored at −80° C. until analysis. Concentrations of Compound 1 in samples were quantified using high-performance liquid chromatography with tandem mass spectrometry (LC-MS/MS). Compound 1 and its internal standard (deuterated Compound 1) were recovered by protein precipitation extraction from samples.
For the plasma pharmacokinetic time course study, a standard curve was made to cover concentrations between 0.001 ug/mL and 3.0 μg/mL. The lower limit of quantification (LLOQ) for Compound 1 (either version) in plasma was 0.001 μg/mL. (FIG. 4a)

BMI-1 = test: Western blot of BMI-1 levels in PDA cell lines; format: cell-based, human; details: Aspc1, MiaPaCa-2, Panc1 cells; 0.1 μM or 1.0 μM, 24 hours (FIG. 10a)
Description: Western blotting was carried out on lysates isolated from treated cells. Cells were lysed using RIPA buffer (50 mM Tris, pH 7.4, 150 mM NaCl, 1% Nonidet P-40, 0.1% SDS, 0.5% deoxycholate) supplemented with cOmplete™ EDTA-free Protease Inhibitor Cocktail (Sigma, 11836170001) and Halt™ Phosphatase Inhibitor Cocktail (ThermoFisher, 78420). Lysates were quantified using the Pierce BCA Protein Assay Kit (ThermoFisher, 23227), diluted in SDS sample buffer, resolved by SDS-PAGE (15-30 μg/sample), and transferred onto PVDF membranes. Membranes were blocked with 5% w/v nonfat dry milk in TBS-T (0.1% Tween20) and primary antibodies were incubated overnight at 4° C., diluted in 5% BSA in TBS-T at the indicated concentrations. HRP-conjugated secondary antibodies were incubated in blocking buffer for 1 hour at room temperature before detection using Super Digital-ECL™ substrate solution (Kindle Biosciences, R1002). (FIG. 5b, FIG. 10a and FIG. 11b)
Western Blot Antibodies: • Bmi1: Cell Signaling, #5856, 1:1000 • Vinculin: Cell Signaling, #4650S, 1:1000 • Beta-tubulin: Cell Signaling, #2146S, 1:1000 P-Glycoprotein Substrate Activity Experiment

Aspc1 cells = test: Cell cycle analysis by flow cytometry (DNA content, PH3) in Aspc1 cells; format: cell-based, human
Description: Cells were seeded into 12-well or 6-well plates such that 16 hours later they would be approximately 30-50% confluent. Cells were then treated for 24 hours with either DMSO (<0.003%), Compound 1 (100 nM or 1 μM), or 100 nM nocodazole (Sigma, M1404). Following treatment, cells were harvested and fixed in ice-cold 70% ethanol for a minimum of one hour. Following fixation, cells were re-suspended in PBS+2% FBS+3 μM DAPI (BioLegend, 422801) or 0.25 μg 7-AAD (BD Pharmingen, 559925), and analyzed on a MACSQuant® Analyzer 10 (Miltenyi Biotec) or BD LSR II™. For cell cycle analysis time course experiments, cells were prepared as described above, except treated for 24, 48, or 72 hours. Data was analyzed using FlowJo software. Percent populations in G2/M were identified using the univariate cell cycle platform offered by FlowJo software. Percent populations >4N were determined by gating above the 4N population of DMSO-treated cells. (FIG. 1b, FIG. 1c, FIG. 2a, FIG. 2b, FIG. 10e, and FIG. 10g)
For phospho-Histone H3 (PH3) staining, cells were fixed and permeabilized according to manufacturer's instructions using the eBioscience Foxp3/Transcription Factor Staining Buffer Set (ThermoFisher, 00-5523-00). Cells were blocked with Fc Block (BD Biosciences, 564220) and stained using a PH3 (Ser10) antibody (BioLegend, 650805) with 5 uL per million cells (45 min, room temp, dark). Samples were analyzed on a BD Fortessa™ and analyzed by FlowJo software. (FIG. 1d and FIG. 3a)

P-glycoprotein = molecular target: T2, P-glycoprotein (Homo sapiens, UniProt P08183); test: P-glycoprotein substrate activity experiment (CC50 ratio MDCK-P-gp vs MDCK-WT); format: in vitro ADME; details: 72 hours, CellTiter-Glo (FIG. 4b)
T2 construct: host or cells: MDCKII-mdr1 (canine kidney MDCKII cells; MDCKII-wt as control)
Description: MDCKII-mdr1 and MDCKII-wt cells were purchased from the Netherlands Cancer Institute, NKI-AVL. The cells were cultivated in Dulbecco's modified essential medium (DMEM), supplemented with 10% FBS and 1% Penn-Strep, and used between passage 3-9. Cells were seeded at a density of 3×10^3 cells/well in 96-well tissue culture treated plates. After 4 hours to allow cells to attach, cells were treated with test compound in the presence or absence of the P-glycoprotein inhibitor Valspodar. The plates were incubated at 37° C., 5% CO2 for 72 hours and ATP was measured vialuminescence using CellTiter-Glo® reagent (Promega). (FIG. 4b)

T1 sequence (P02554 whole entry): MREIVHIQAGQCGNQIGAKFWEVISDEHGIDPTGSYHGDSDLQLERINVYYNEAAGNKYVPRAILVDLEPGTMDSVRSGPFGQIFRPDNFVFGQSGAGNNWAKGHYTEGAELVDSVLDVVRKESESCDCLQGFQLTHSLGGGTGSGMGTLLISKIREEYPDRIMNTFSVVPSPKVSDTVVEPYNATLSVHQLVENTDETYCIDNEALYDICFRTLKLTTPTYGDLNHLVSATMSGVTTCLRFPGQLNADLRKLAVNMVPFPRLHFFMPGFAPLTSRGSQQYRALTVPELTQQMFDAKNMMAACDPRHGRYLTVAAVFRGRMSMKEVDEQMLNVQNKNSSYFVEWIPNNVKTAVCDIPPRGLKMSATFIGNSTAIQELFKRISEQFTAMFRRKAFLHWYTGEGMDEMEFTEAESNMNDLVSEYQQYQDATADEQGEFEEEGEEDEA
T1 sequence (P02550 whole entry): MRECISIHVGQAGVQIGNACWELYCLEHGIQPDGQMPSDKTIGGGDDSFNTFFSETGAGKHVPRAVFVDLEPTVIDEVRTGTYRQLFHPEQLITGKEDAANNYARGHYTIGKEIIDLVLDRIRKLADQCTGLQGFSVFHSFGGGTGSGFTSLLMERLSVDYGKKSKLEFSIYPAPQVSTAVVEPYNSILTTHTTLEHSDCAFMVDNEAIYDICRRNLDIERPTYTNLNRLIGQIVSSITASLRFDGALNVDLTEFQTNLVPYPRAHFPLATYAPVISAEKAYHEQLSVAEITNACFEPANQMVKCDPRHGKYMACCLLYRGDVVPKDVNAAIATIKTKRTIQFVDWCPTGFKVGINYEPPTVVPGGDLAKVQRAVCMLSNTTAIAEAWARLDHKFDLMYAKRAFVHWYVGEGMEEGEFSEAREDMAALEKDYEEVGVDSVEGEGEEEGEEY
T2 sequence (P08183 whole entry): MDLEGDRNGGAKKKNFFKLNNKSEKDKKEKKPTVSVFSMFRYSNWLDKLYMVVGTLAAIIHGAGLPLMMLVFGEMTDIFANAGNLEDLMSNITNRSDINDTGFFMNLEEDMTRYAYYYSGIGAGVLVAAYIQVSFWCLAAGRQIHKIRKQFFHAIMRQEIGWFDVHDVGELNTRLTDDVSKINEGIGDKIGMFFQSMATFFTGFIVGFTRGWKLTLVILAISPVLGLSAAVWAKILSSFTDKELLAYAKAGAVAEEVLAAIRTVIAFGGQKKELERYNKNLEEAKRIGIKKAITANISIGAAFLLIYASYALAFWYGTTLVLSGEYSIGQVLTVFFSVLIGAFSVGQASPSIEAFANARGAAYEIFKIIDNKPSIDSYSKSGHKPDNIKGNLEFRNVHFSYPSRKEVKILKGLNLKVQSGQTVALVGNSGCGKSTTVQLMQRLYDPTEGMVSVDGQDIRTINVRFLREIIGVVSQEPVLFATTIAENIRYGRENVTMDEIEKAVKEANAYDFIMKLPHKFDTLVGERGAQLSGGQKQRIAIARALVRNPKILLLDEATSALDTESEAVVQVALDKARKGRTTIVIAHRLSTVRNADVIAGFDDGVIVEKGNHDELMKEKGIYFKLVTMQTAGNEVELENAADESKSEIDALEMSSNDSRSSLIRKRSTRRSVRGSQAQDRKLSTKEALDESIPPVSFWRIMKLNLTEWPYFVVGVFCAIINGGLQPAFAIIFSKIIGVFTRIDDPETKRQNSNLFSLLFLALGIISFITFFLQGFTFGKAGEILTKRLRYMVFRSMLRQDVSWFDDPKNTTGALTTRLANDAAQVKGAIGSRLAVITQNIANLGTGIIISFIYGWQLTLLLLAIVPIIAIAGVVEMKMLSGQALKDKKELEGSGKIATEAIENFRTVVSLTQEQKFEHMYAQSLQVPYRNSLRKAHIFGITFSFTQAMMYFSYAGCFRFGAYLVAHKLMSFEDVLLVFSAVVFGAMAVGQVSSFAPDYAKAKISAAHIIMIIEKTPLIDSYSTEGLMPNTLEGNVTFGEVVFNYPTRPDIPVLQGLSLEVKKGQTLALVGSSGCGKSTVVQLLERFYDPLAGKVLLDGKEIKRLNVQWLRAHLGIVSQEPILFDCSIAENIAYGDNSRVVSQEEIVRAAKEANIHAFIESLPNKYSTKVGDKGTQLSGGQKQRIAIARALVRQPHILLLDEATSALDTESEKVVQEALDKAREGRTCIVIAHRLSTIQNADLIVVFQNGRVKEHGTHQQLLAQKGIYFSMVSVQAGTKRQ

## Cc1nc2ccc(F)cc2n1-c1nc(N)c(F)c(Nc2ccc(C(F)(F)F)cc2)n1 [Compound 1, 5-fluoro-2-(6-fluoro-2-methyl-1H-benzo[d]imidazol-1-yl)-N4-[4-(trifluoromethyl)phenyl]pyrimidine-4,6-diamine]
[1]
  tubulin polymerization (fluorescence units/minute): function as a microtubule polymerization inhibitor; also recorded: dose-dependent decrease in tubulin polymerization; also recorded: directly inhibits microtubule formation
[2]
  CNS penetration / brain distribution: penetrates the CNS and distributes into brain tissues
[2]; 10 mg/kg
  plasma / circulating half-life: long circulating half-life; also recorded: long plasma half-life
BMI-1
  BMI-1 levels relative to vinculin: consistent reduction in BMI-1 protein expression in various cell types
Aspc1 cells; 0.1 μM or 1.0 μM, 24 hours (FIGS. 1b-1d)
  cell cycle arrest (percent cells in G0/G1, S, G2/M; percent in mitosis PH3+/4N): dose and time-dependent effect in cell cycle arrest
Aspc1 cells; 0.1 μM or 1.0 μM, 24, 48, 72 hours (FIGS. 2a, 2b)
  percent of Aspc1 cells with DNA content >4N (polyploidy): dose and time-dependent increase in the amount of human PDA cells affected by polyploidy
Aspc1 cells; multiple PDA cell lines (summary statement)
  mitotic arrest and apoptosis: induce mitotic arrest and apoptosis in multiple PDA cell lines
P-glycoprotein
  PGP substrate activity (ratio of CC50 values MDCK-P-gp vs MDCK-WT): lack of P-glycoprotein (PGP) substrate activity; also recorded: do not function as a PGP substrate
